Laboratory results: PMC9395488, “First-in-human study of IM156, a novel potent biguanide oxidative phosphorylation (OXPHOS) inhibitor, in patients with advanced solid tumors” (Investigational New Drugs, 2022)

Test system: patients with advanced solid tumors
Test: First-in-human phase 1 dose-escalation study: safety, DLTs, adverse events
Type: in vivo
From the text: This multicenter first-in-human dose-escalation phase 1 study (clinicaltrials.gov identifier: NCT03272256) was designed to determine the MTD or RP2D and to evaluate the safety and tolerability of IM156. Secondary endpoints included PK characteristics, efficacy assessment (objective response rate [ORR], disease control rate [DCR], duration of response [DoR] and progression-free survival [PFS]). Furthermore, exploratory objectives included identification and profiling of IM156 metabolites, evaluations of exploratory PD markers of IM156, and evaluations of any potential relationship between putative biomarkers and safety/efficacy parameters of IM156. The study was conducted in accordance with Good Clinical Practice, the International Council for Harmonisation, and guidelines governing clinical study conduct and the ethical principles originating from the Declaration of Helsinki. The study was approved by each Institutional Review Board and patients provided written informed consent. Patients were enrolled at three sites in South Korea.
The initial dose and schedule of IM156 was chosen based on animal toxicology studies. […] IM156 was administered in the fasted state, with no food for at least 2 h before and 1 h after dosing.
Three DLT-evaluable patients were enrolled at each dose level. If there were no DLTs or other prohibitive adverse events (AEs), the Safety Committee was allowed to recommend escalation to the next highest dose level. If 1 DLT occurred in the first 3 DLT-evaluable patients, enrollment in that cohort was expanded to an additional 3 DLT-evaluable patients; if ≥ 2 DLTs were reported in a cohort, that dose was considered above the MTD.
Safety was assessed through vital signs, weight, laboratory assessments, physical examinations, electrocardiogram, and reporting of AEs as graded by the National Cancer Institute’s Common Terminology Criteria for Adverse Events v4.03 (NCI-CTCAE).
DLTs were defined as the following AEs if they were attributed as related to IM156: asymptomatic grade 4 neutropenia lasting for ≥ 5 days; febrile neutropenia, regardless of grade; grade 4 thrombocytopenia or grade 3 thrombocytopenia with bleeding; any grade ≥ 3 non-hematologic AE (except grade 3 hypertension and grade 3 nausea, vomiting or diarrhea for which proper measures for prevention and treatment were not implemented, and alopecia); blood lactate levels > 5 mmol; grade ≥ 2 AE prohibiting dosing of IM156 for ≥ 21 continuous days except for alterations in serum calcium or phosphorus levels. The safety analysis includes all patients who received at least one dose of study drug.
The safety population was defined as all patients who received at least one dose of IM156. The PK population was not defined in the protocol but included all patients with sufficient PK data to perform adequate PK modeling. The efficacy population included all patients who underwent at least one tumor imaging assessment while receiving IM156. Safety was assessed using descriptive statistics (e.g., DLTs, AEs, laboratory tests, physical examination, 12-lead ECG). The incidence and number of events were reported for the DLTs observed in Cycle 1 per dose group. […] Adverse events and TRAEs were standardized with the System Organ Class and the Preferred Term using the Medical Dictionary for Regulatory Activities v23.0. In addition, TEAEs, serious adverse events (SAEs), TEAE severity, and TEAEs leading to withdrawal were presented by dose group. Efficacy data were to be presented by Waterfall and Swim Lane plots. Time to event endpoints (e.g., DoR, PFS) were determined using Kaplan–Meier estimations with the median value for each endpoint summarized.

[1] = DL5 1200 mg orally every other day (n=3)

Structure (SMILES): NC(=Nc1ccc(OC(F)(F)F)cc1)N=C(N)N1CCCC1 [IM156]
- TEAE Dry skin grade 1 [1]: 0
- TEAE Dry skin grade 2 [1]: 0
- TEAE Dry skin grade 3 [1]: 0
- TEAE Dry skin grade 4 [1]: 0
- TEAE Flank pain grade 1 [1]: 0
- TEAE Flank pain grade 2 [1]: 0
- TEAE Flank pain grade 3 [1]: 0
- TEAE Flank pain grade 4 [1]: 0
- TEAE Hypertension grade 1 [1]: 0
- TEAE Hypertension grade 2 [1]: 0
- TEAE Hypertension grade 3 [1]: 0
- TEAE Hypertension grade 4 [1]: 0
- TEAE Hypotension grade 1 [1]: 0
- TEAE Hypotension grade 2 [1]: 1
- TEAE Hypotension grade 3 [1]: 0
- TEAE Hypotension grade 4 [1]: 0
- TEAE Insomnia grade 1 [1]: 0
- TEAE Insomnia grade 2 [1]: 0
- TEAE Insomnia grade 3 [1]: 0
- TEAE Insomnia grade 4 [1]: 0
- TEAE Pain in extremity grade 1 [1]: 0
- TEAE Pain in extremity grade 2 [1]: 0
- TEAE Pain in extremity grade 3 [1]: 0
- TEAE Pain in extremity grade 4 [1]: 0
- TEAE Pruritus grade 1 [1]: 0
- TEAE Pruritus grade 2 [1]: 0
- TEAE Pruritus grade 3 [1]: 0
- TEAE Pruritus grade 4 [1]: 0
- TEAE Psychiatric disorders grade 1 [1]: 0
- TEAE Psychiatric disorders grade 2 [1]: 0
- TEAE Psychiatric disorders grade 3 [1]: 0
- TEAE Psychiatric disorders grade 4 [1]: 0
- TEAE Purpura grade 1 [1]: 0
- TEAE Purpura grade 2 [1]: 0
- TEAE Purpura grade 3 [1]: 0
- TEAE Purpura grade 4 [1]: 0
- TEAE Urinary retention grade 1 [1]: 0
- TEAE Urinary retention grade 2 [1]: 0
- TEAE Urinary retention grade 3 [1]: 0
- TEAE Urinary retention grade 4 [1]: 0
- TEAE Urinary tract disorder grade 1 [1]: 0
- TEAE Urinary tract disorder grade 2 [1]: 0
- TEAE Urinary tract disorder grade 3 [1]: 0
- TEAE Urinary tract disorder grade 4 [1]: 0
- TEAE Abdominal discomfort, grade 1 (DL6 800 mg QD (n=3)): 1
- TEAE Alanine aminotransferase increased, grade 1 (DL6 800 mg QD (n=3)): 1
- TEAE Aspartate aminotransferase increased, grade 1 (DL6 800 mg QD (n=3)): 1
- TEAE Blood lactic acid increased, grade 1 (DL6 800 mg QD (n=3)): 1
- TEAE Constipation, grade 1 (DL6 800 mg QD (n=3)): 2
- TEAE Decreased appetite, grade 1 (DL6 800 mg QD (n=3)): 1
- TEAE Diarrhoea, grade 1 (DL6 800 mg QD (n=3)): 3
- TEAE Fatigue, grade 1 (DL6 800 mg QD (n=3)): 1
- TEAE Gastrointestinal pain, grade 1 (DL6 800 mg QD (n=3)): 1
- TEAE Nausea, grade 1 (DL6 800 mg QD (n=3)): 2
- TEAE Toothache, grade 1 (DL6 800 mg QD (n=3)): 1
- TEAE Vomiting, grade 1 (DL6 800 mg QD (n=3)): 1
- TRAE Abdominal Pain, > G3 (patients) (DL6 800 mg QD, N = 3): 0
- TRAE Abdominal Pain, All grades (patients) (DL6 800 mg QD, N = 3): 0
- TRAE Blood Lactic Acid increased, > G3 (patients) (DL6 800 mg QD, N = 3): 0
- TRAE Blood Lactic Acid increased, All grades (patients) (DL6 800 mg QD, N = 3): 1
- TRAE Constipation, > G3 (patients) (DL6 800 mg QD, N = 3): 0
- TRAE Constipation, All grades (patients) (DL6 800 mg QD, N = 3): 1
- TRAE Decreased appetite, > G3 (patients) (DL6 800 mg QD, N = 3): 0
- TRAE Decreased appetite, All grades (patients) (DL6 800 mg QD, N = 3): 0
- TRAE Diarrhoea, > G3 (patients) (DL6 800 mg QD, N = 3): 0
- TRAE Diarrhoea, All grades (patients) (DL6 800 mg QD, N = 3): 3
- TRAE Fatigue, > G3 (patients) (DL6 800 mg QD, N = 3): 0
- TRAE Fatigue, All grades (patients) (DL6 800 mg QD, N = 3): 0
- TRAE Insomnia, > G3 (patients) (DL6 800 mg QD, N = 3): 0
- TRAE Insomnia, All grades (patients) (DL6 800 mg QD, N = 3): 0
- TRAE Nausea, > G3 (patients) (DL6 800 mg QD, N = 3): 0
- TRAE Nausea, All grades (patients) (DL6 800 mg QD, N = 3): 2
- TRAE Vomiting, > G3 (patients) (DL6 800 mg QD, N = 3): 0
- TRAE Vomiting, All grades (patients) (DL6 800 mg QD, N = 3): 1
- TEAE Adrenal insufficiency grade 1 (DL6 800 mg orally daily (n=3)): 0
- TEAE Adrenal insufficiency grade 2 (DL6 800 mg orally daily (n=3)): 0
- TEAE Adrenal insufficiency grade 3 (DL6 800 mg orally daily (n=3)): 0
- TEAE Adrenal insufficiency grade 4 (DL6 800 mg orally daily (n=3)): 0
- TEAE Anaemia grade 1 (DL6 800 mg orally daily (n=3)): 0
- TEAE Anaemia grade 2 (DL6 800 mg orally daily (n=3)): 0
- TEAE Anaemia grade 3 (DL6 800 mg orally daily (n=3)): 0
- TEAE Anaemia grade 4 (DL6 800 mg orally daily (n=3)): 0
- TEAE Appendicitis perforated grade 1 (DL6 800 mg orally daily (n=3)): 0
- TEAE Appendicitis perforated grade 2 (DL6 800 mg orally daily (n=3)): 0
- TEAE Appendicitis perforated grade 3 (DL6 800 mg orally daily (n=3)): 0
- TEAE Appendicitis perforated grade 4 (DL6 800 mg orally daily (n=3)): 0
- TEAE Back pain grade 1 (DL6 800 mg orally daily (n=3)): 0
- TEAE Back pain grade 2 (DL6 800 mg orally daily (n=3)): 0
- TEAE Back pain grade 3 (DL6 800 mg orally daily (n=3)): 0
- TEAE Back pain grade 4 (DL6 800 mg orally daily (n=3)): 0
- TEAE Cystitis grade 1 (DL6 800 mg orally daily (n=3)): 0
- TEAE Cystitis grade 2 (DL6 800 mg orally daily (n=3)): 0
- TEAE Cystitis grade 3 (DL6 800 mg orally daily (n=3)): 0
- TEAE Cystitis grade 4 (DL6 800 mg orally daily (n=3)): 0
- TEAE Dry skin grade 1 (DL6 800 mg orally daily (n=3)): 0
- TEAE Dry skin grade 2 (DL6 800 mg orally daily (n=3)): 0
- TEAE Dry skin grade 3 (DL6 800 mg orally daily (n=3)): 0
- TEAE Dry skin grade 4 (DL6 800 mg orally daily (n=3)): 0
- TEAE Flank pain grade 1 (DL6 800 mg orally daily (n=3)): 0
- TEAE Flank pain grade 2 (DL6 800 mg orally daily (n=3)): 0
- TEAE Flank pain grade 3 (DL6 800 mg orally daily (n=3)): 0
- TEAE Flank pain grade 4 (DL6 800 mg orally daily (n=3)): 0
- TEAE Hypertension grade 1 (DL6 800 mg orally daily (n=3)): 0
- TEAE Hypertension grade 2 (DL6 800 mg orally daily (n=3)): 0
- TEAE Hypertension grade 3 (DL6 800 mg orally daily (n=3)): 0
- TEAE Hypertension grade 4 (DL6 800 mg orally daily (n=3)): 0
- TEAE Hypotension grade 1 (DL6 800 mg orally daily (n=3)): 0
- TEAE Hypotension grade 2 (DL6 800 mg orally daily (n=3)): 0
- TEAE Hypotension grade 3 (DL6 800 mg orally daily (n=3)): 0
- TEAE Hypotension grade 4 (DL6 800 mg orally daily (n=3)): 0
- TEAE Insomnia grade 1 (DL6 800 mg orally daily (n=3)): 1
- TEAE Insomnia grade 2 (DL6 800 mg orally daily (n=3)): 0
- TEAE Insomnia grade 3 (DL6 800 mg orally daily (n=3)): 0
- TEAE Insomnia grade 4 (DL6 800 mg orally daily (n=3)): 0
- TEAE Pain in extremity grade 1 (DL6 800 mg orally daily (n=3)): 0
- TEAE Pain in extremity grade 2 (DL6 800 mg orally daily (n=3)): 0
- TEAE Pain in extremity grade 3 (DL6 800 mg orally daily (n=3)): 0
